Measurements published in ChEMBL document CHEMBL3885861, “Open TG-GATES”.

Species: Rattus norvegicus
Assay: Open TG-GATES - Regimen: Daily Repeat
Type: toxicity, organism-based, Sprague-Dawley
Design: regimen Daily Repeat, gender Male, age 6 weeks
Settings: in vivo, po, 50 mg/kg, route gavage, dose level Middle; for APTT / Bas / Eos / Fbg / Hb / Ht / Lym / MCH / MCHC / MCV / Mono / Neu / PT / Plat / RBC / Ret / WBC: tissue Blood; for KIDNEY_L / KIDNEY_R / KIDNEY_TOTAL: tissue Kidney; for LIVER: tissue Liver; for A/G / ALP / ALT / AST / BUN / CRE / Ca / Cl / DBIL / GLC / IP / K / LDH / Na / PL / RALB / TBIL / TC / TG / TP / gamma-GTP: tissue Plasma

Nc1nc(N)c2nc(-c3ccccc3)c(N)nc2n1
TERMINAL_BW (72 h, time 3 day): 241.1 g | APTT (72 h, time 3 day): 15.9 s | Bas (72 h, time 3 day): 0% | Eos (72 h, time 3 day): 1% | Fbg (72 h, time 3 day): 334.2 mg/dL | Hb (72 h, time 3 day): 13.9 g/dL | Ht (72 h, time 3 day): 40.9% | Lym (72 h, time 3 day): 74.4% | MCH (72 h, time 3 day): 21.2 pg | MCHC (72 h, time 3 day): 34.2% | MCV (72 h, time 3 day): 62.1 fL | Mono (72 h, time 3 day): 2.8% | Neu (72 h, time 3 day): 21.4% | PT (72 h, time 3 day): 13.8 s | Plat (72 h, time 3 day): 119.3 x10_4/uL | RBC (72 h, time 3 day): 658 x10_4/ul | Ret (72 h, time 3 day): 5.6% | WBC (72 h, time 3 day): 93.5 x10_2/uL | KIDNEY_L (72 h, time 3 day): 1.1 g | KIDNEY_R (72 h, time 3 day): 1.1 g | KIDNEY_TOTAL (72 h, time 3 day): 2.2 g | LIVER (72 h, time 3 day): 11.5 g | A/G (72 h, time 3 day): 0.9 | ALP (72 h, time 3 day): 1521.8 IU/L | ALT (72 h, time 3 day): 42.2 IU/L | AST (72 h, time 3 day): 65.2 IU/L | BUN (72 h, time 3 day): 15.2 mg/dL | CRE (72 h, time 3 day): 0.2 mg/dL | Ca (72 h, time 3 day): 10.9 mg/dL | Cl (72 h, time 3 day): 105.4 meq/L | DBIL (72 h, time 3 day): 0.008 mg/dL | GLC (72 h, time 3 day): 175 mg/dL | IP (72 h, time 3 day): 8.2 mg/dL | K (72 h, time 3 day): 3.9 meq/L | LDH (72 h, time 3 day): 56.2 IU/L | Na (72 h, time 3 day): 143.6 meq/L | PL (72 h, time 3 day): 166.2 mg/dL | RALB (72 h, time 3 day): 2.6 g/dL | TBIL (72 h, time 3 day): 0.04 mg/dL | TC (72 h, time 3 day): 85 mg/dL | TG (72 h, time 3 day): 126.2 mg/dL | TP (72 h, time 3 day): 5.5 g/dL | gamma-GTP (72 h, time 3 day): 1 IU/L | TERMINAL_BW ([…], time 7 day): 280.2 g | TERMINAL_BW ([…], time 14 day): 333.9 g | TERMINAL_BW ([…], time 28 day): 402.9 g | APTT ([…], time 7 day): 16.3 s | Bas ([…], time 7 day): 0% | Eos ([…], time 7 day): 1% | Fbg ([…], time 7 day): 335.4 mg/dL | Hb ([…], time 7 day): 13.8 g/dL | Ht ([…], time 7 day): 42.3% | Lym ([…], time 7 day): 77.8% | MCH ([…], time 7 day): 20.2 pg | MCHC ([…], time 7 day): 32.6% | MCV ([…], time 7 day): 62.1 fL | Mono ([…], time 7 day): 2% | Neu ([…], time 7 day): 18.6% | PT ([…], time 7 day): 13.9 s | Plat ([…], time 7 day): 134.1 x10_4/uL | RBC ([…], time 7 day): 680.6 x10_4/ul | Ret ([…], time 7 day): 5.3% | WBC ([…], time 7 day): 121.8 x10_2/uL | APTT ([…], time 14 day): 18.2 s | Bas ([…], time 14 day): 0.2% | Eos ([…], time 14 day): 1% | Fbg ([…], time 14 day): 312.2 mg/dL | Hb ([…], time 14 day): 14.5 g/dL | Ht ([…], time 14 day): 44.6% | Lym ([…], time 14 day): 80.6% | MCH ([…], time 14 day): 19.6 pg | MCHC ([…], time 14 day): 32.6% | MCV ([…], time 14 day): 59.9 fL | Mono ([…], time 14 day): 2.6% | Neu ([…], time 14 day): 15.4% | PT ([…], time 14 day): 12.9 s | Plat ([…], time 14 day): 127.2 x10_4/uL | RBC ([…], time 14 day): 744.2 x10_4/ul | Ret ([…], time 14 day): 4.2% | WBC ([…], time 14 day): 93 x10_2/uL | APTT ([…], time 28 day): 18.2 s | Bas ([…], time 28 day): 0.4% | Eos ([…], time 28 day): 1.4% | Fbg ([…], time 28 day): 283.2 mg/dL | Hb ([…], time 28 day): 15.4 g/dL | Ht ([…], time 28 day): 45.4% | Lym ([…], time 28 day): 80% | MCH ([…], time 28 day): 19.1 pg | MCHC ([…], time 28 day): 33.9% | MCV ([…], time 28 day): 56.2 fL | Mono ([…], time 28 day): 1.6% | Neu ([…], time 28 day): 16.2% | PT ([…], time 28 day): 13.5 s | Plat ([…], time 28 day): 105.5 x10_4/uL | RBC ([…], time 28 day): 807 x10_4/ul | Ret ([…], time 28 day): 2.4% | WBC ([…], time 28 day): 101.1 x10_2/uL | KIDNEY_L ([…], time 7 day): 1.2 g | KIDNEY_R ([…], time 7 day): 1.2 g | KIDNEY_TOTAL ([…], time 7 day): 2.4 g | KIDNEY_L ([…], time 14 day): 1.3 g | KIDNEY_R ([…], time 14 day): 1.3 g | KIDNEY_TOTAL ([…], time 14 day): 2.6 g | KIDNEY_L ([…], time 28 day): 1.4 g | KIDNEY_R ([…], time 28 day): 1.4 g | KIDNEY_TOTAL ([…], time 28 day): 2.8 g | LIVER ([…], time 7 day): 12.7 g | LIVER ([…], time 14 day): 14.7 g | LIVER ([…], time 28 day): 15.8 g | A/G ([…], time 7 day): 0.9 | ALP ([…], time 7 day): 1449.6 IU/L | ALT ([…], time 7 day): 46.8 IU/L | AST ([…], time 7 day): 66.6 IU/L | BUN ([…], time 7 day): 17.6 mg/dL | CRE ([…], time 7 day): 0.2 mg/dL | Ca ([…], time 7 day): 11 mg/dL | Cl ([…], time 7 day): 106 meq/L | DBIL ([…], time 7 day): 0.012 mg/dL | GLC ([…], time 7 day): 179 mg/dL | IP ([…], time 7 day): 7.7 mg/dL | K ([…], time 7 day): 4.3 meq/L | LDH ([…], time 7 day): 60 IU/L | Na ([…], time 7 day): 142.4 meq/L | PL ([…], time 7 day): 154.6 mg/dL | RALB ([…], time 7 day): 2.6 g/dL | TBIL ([…], time 7 day): 0.07 mg/dL | TC ([…], time 7 day): 77.2 mg/dL | TG ([…], time 7 day): 128.2 mg/dL | TP ([…], time 7 day): 5.5 g/dL | gamma-GTP ([…], time 7 day): 1.2 IU/L | A/G ([…], time 14 day): 0.9 | ALP ([…], time 14 day): 1311.6 IU/L | ALT ([…], time 14 day): 43.2 IU/L | AST ([…], time 14 day): 64.2 IU/L | BUN ([…], time 14 day): 18 mg/dL | CRE ([…], time 14 day): 0.2 mg/dL | Ca ([…], time 14 day): 10.6 mg/dL | Cl ([…], time 14 day): 104.8 meq/L | DBIL ([…], time 14 day): 0.014 mg/dL | GLC ([…], time 14 day): 191.8 mg/dL | IP ([…], time 14 day): 8.1 mg/dL | K ([…], time 14 day): 3.7 meq/L | LDH ([…], time 14 day): 69.6 IU/L | Na ([…], time 14 day): 144.4 meq/L | PL ([…], time 14 day): 149.2 mg/dL | RALB ([…], time 14 day): 2.7 g/dL | TBIL ([…], time 14 day): 0.07 mg/dL | TC ([…], time 14 day): 70.2 mg/dL | TG ([…], time 14 day): 137 mg/dL | TP ([…], time 14 day): 5.9 g/dL | gamma-GTP ([…], time 14 day): 1 IU/L | A/G ([…], time 28 day): 0.8 | ALP ([…], time 28 day): 1251 IU/L | ALT ([…], time 28 day): 39.2 IU/L | AST ([…], time 28 day): 62.4 IU/L | BUN ([…], time 28 day): 17.6 mg/dL | CRE ([…], time 28 day): 0.2 mg/dL | Ca ([…], time 28 day): 10.7 mg/dL | Cl ([…], time 28 day): 104.2 meq/L | DBIL ([…], time 28 day): 0.014 mg/dL | GLC ([…], time 28 day): 188.2 mg/dL | IP ([…], time 28 day): 6.7 mg/dL | K ([…], time 28 day): 3.8 meq/L | LDH ([…], time 28 day): 52.6 IU/L | Na ([…], time 28 day): 143.6 meq/L | PL ([…], time 28 day): 139.2 mg/dL | RALB ([…], time 28 day): 2.7 g/dL | TBIL ([…], time 28 day): 0.06 mg/dL | TC ([…], time 28 day): 64.6 mg/dL | TG ([…], time 28 day): 154 mg/dL | TP ([…], time 28 day): 6.1 g/dL | gamma-GTP ([…], time 28 day): 1 IU/L
